Results on five molecules are retold here after patent publication US11376272B2, “Methods of modulating immune activity” (Flagship Pioneering Innovations V, Inc., priority 2019, dated 2022).

Molecules are shown by their SMILES.

One experiment has as its system NfkB. Kind of experiment: NfkB reporter activity in THP1-Dual cells (QuantiBlue). As to conditions: 24 hours. Type of experiment: cell-based, human. Here is the method:
(§1) HeLa cervical cancer cells were grown in either DMEM containing 10% FBS (standard culture conditions), or in PBS (nutrient-deprivation) for 48 hours. Conditioned media from each condition was then transferred to THP1-Dual cells in the presence of 300 ng/ml of 2′3′-cGAMP (purchased from Invivogen, cat no. tlrl-nacga23, and resuspended in water). THP1 cells treated with conditioned media were incubated for an additional 24 hours. THP1 supernatants were then assessed for NfkB or IRF reporter activity.
HeLa cells were acquired from the ATCC (catalog no. CCL 2.2) and were cultured in DMEM containing 10% FBS. THP1-Dual cells, which are human monocytes that report on both the NfkB and IRF pathways, were purchased from Invivogen (cat no. thpd-nfis) and were cultured in RPMI containing 10% FBS and 100 μg/ml normocin. […]
To measure IRF or NfkB pathway activation, 35,000 THP1-Dual cells/well were seeded in a 96-well plate (100 μl/well). […] After a 24 hour incubation period, IRF and NfkB activity were measured. To measure IRF activity, 50 μl of THP1 supernatant was transferred to a 96-well plate, and 50 μl of QuantiLuc reagent was added to each well immediately prior to reading luminescence by a platereader. […] The plate was then incubated at room temperature for 2-3 hours prior to reading the absorbance at 655 nm.

For experiment [1], the system named is IFN-beta. The experiment in a line: IFN-beta secretion from J774 macrophages (ELISA). Type of experiment: cell-based, mouse. As to conditions: J774 macrophages exposed to HeLa/PBS conditioned media in combination with 2′3′-cGAMP, 24 hours. Here is the method:
(§2) HeLa cervical cancer cells were grown in PBS (nutrient-deprivation) for 48 hours. THP1 cells were then treated with the HeLa-PBS (nutrient deprived) conditioned media in the presence and absence of 2′3′-cGAMP. THP1 supernatants were then assayed for the secretion of IFN-beta, a cytokine regulated by IRF. The same experiment was additionally performed using the mouse macrophage cell line J774 in place of the THP1 cells.
(§3) To generate conditioned media, 3 million HeLa cells were seeded in a 10 cm dish in DMEM containing 10% FBS. Cells were left overnight to adhere and then plates were washed 3× with PBS prior to replacing media with either fresh DMEM containing 10% FBS, or with PBS. Cells were incubated for 48 hours, and then the conditioned media was removed, spun down and sterile filtered.
The same experiment was additionally performed using J774 cells (ATCC, TIB-67). In brief 500,000 cells/well were seeded in a 24-well plate. After cell adherence, media was refreshed, and HeLa conditioned media was added either in the presence or absence of 2′3′-cGAMP (as described above). After 24 hours J774 supernatant was removed an assayed for IFN-beta secretion as described above.
Background: In an ELISA, binding on a coated surface is turned into a signal by an enzyme label.

The subject of a further experiment is IRF. Kind of experiment: IRF reporter activity in THP1-Dual cells treated with conditioned media and/or compounds (QuantiLuc). It counts as cell-based, human. As to the method:
as §1
HeLa cells were acquired from the ATCC (catalog no. CCL 2.2) and were cultured in DMEM containing 10% FBS. THP1-Dual cells, which are human monocytes that report on both the NfkB and IRF pathways, were purchased from Invivogen (cat no. thpd-nfis) and were cultured in RPMI containing 10% FBS and 100 μg/ml normocin.
as §3
To measure IRF or NfkB pathway activation, 35,000 THP1-Dual cells/well were seeded in a 96-well plate (100 μl/well). 100 μl of HeLa conditioned media was transferred to each well, plus or minus 2′3′-cGAMP (300 ng/ml final concentration). After a 24 hour incubation period, IRF and NfkB activity were measured. To measure IRF activity, 50 μl of THP1 supernatant was transferred to a 96-well plate, and 50 μl of QuantiLuc reagent was added to each well immediately prior to reading luminescence by a platereader. To measure NfkB activity, 50 μl of THP1 supernatant was transferred to a 96-well plate containing 200 μl of QuantiBlue reagent. The plate was then incubated at room temperature for 2-3 hours prior to reading the absorbance at 655 nm.
THP1-Dual cells (acquired from Invivogen) were seeded at 35,000 cells/well in a 96-well plate (100 μl/well). In a separate treatment plate, a 3-fold dose-response curve of each CDN was prepared, starting at 40 μg/ml, in either plain PBS or in combination with HeLa-PBS conditioned media (conditioned media prepared as previously described). 100 μl of compound treatment was transferred to THP1 cells (1:1 dilution) and cells were incubated for 24 hours. THP1 supernatants were subsequently removed and assayed for IRF activity.
THP1-Dual cells were plated at 35,000 cells/well in 96-well format. To each well, 100 μl of conditioned media was added (in triplicate) in the presence or absence of 2′3′-cGAMP (300 ng/ml). THP1-Dual cells were then incubated for 24 hours with conditioned media prior to assaying IRF induction.
THP1-Dual cells (acquired from Invivogen) were seeded at 35,000 cells/well in a 96-well plate (100 μl/well). In a separate treatment plate, a 3-fold dose-response curve of each purinergic receptor antagonist was prepared, starting at 20 μM, in either 2′3′-cGAMP alone or 2′3′-cGAMP in combination with HeLa-PBS conditioned media (conditioned media prepared as described in examples above). 100 μl from the treatment plate was then transferred to THP1 cells (1:1 dilution), and the cells were incubated for 24 hours. THP1 supernatants were removed and tested for IRF activity.
THP1 cells, acquired from Invivogen, were seeded at 35,000 cells/well in 96-well format, in 100 μl media. In a separate treatment plate, a dose curve of PSB 1114, starting at 20 μM, was prepared in either plain PBS, or in the presence of cGAMP. 100 μl from treatment plate was transferred to THP1 cells (1:1 dilution), and cells were incubated for 24 hours prior to IRF and NfkB read-out.
THP1 cells, acquired from Invivogen, were seeded at 35,000 cells/well in 96-well format, in 100 μl media. In a separate treatment plate, a dose curve of Diquafosol (acquired from MedChemExpress), starting at 100 μM, was prepared in either plain PBS, or in the presence of cGAMP. […]

Experiment [2] deals with IFN-beta. Kind of experiment: IFN-beta secretion from THP1 monocytes (ELISA). Type of experiment: cell-based, human. The note with it: THP1 monocytes exposed to HeLa/PBS conditioned media in combination with 2′3′-cGAMP 300 ng/ml, 24 hours. As to the method:
as §2, §3
500,000 THP1-Dual cells/well were seeded in a 24-well plate. 500 μl (1:1 dilution) of each condition was added to the well (PBS; PBS+300 ng/ml cGAMP; HeLa-PBS CM; HeLa-PBS CM+300 ng/ml cGAMP) and incubated for 24 hours. Cell supernatants were then spun down and sterile filtered prior to performing ELISA assay. ELISA assay was performed using the human IFN-beta DuoSet ELISA kit (DY814-05) and following the protocol provided by the manufacturer.

The next experiment has as its system B16.F10 melanoma. As to conditions: Corrales et al., 2015; cited from earlier work.
Experiment [3] has as its system A20 B-cell lymphoma tumor cells. Kind of experiment: Survival in mouse model of A20 B-cell lymphoma. As to conditions: combination of 1 μg/kg ADU-S100 and 10 mg/animal diquafosol tetrasodium intratumorally once per day (Group 5), relative to either agent alone (Groups 2, 4). Type of experiment: in vivo, BALB/c mice. As to the method: Test BALB/c mice were injected subcutaneously in the right flank with 1×10^6 A20 B-cell lymphoma tumor cells (in a 0.1 mL cell suspension). Sixteen days after tumor cell implantation, on Day 1 of the study, animals were sorted into ten groups (n=10) with individual tumor volumes between 48 and 100 mm^3 and a group mean tumor volume of 81 mm^3. Five groups of mice were dosed according in the following treatment groups.
Group 1 received Vehicle (PBS) intratumorally once per day. • Group 2 received 1 μg/kg of the STING agonist (ADU-S100) intratumorally once per day. • Group 3 received 50 μg/kg of the STING agonist (ADU-S100) intratumorally once per day. • Group 4 received 10 mg/animal of the purinergic receptor agonist (diquafosol testrasodium) intratumorally once per day. • Group 5 received 1 μg/kg ADU-S100 intratumorally combined with 10 mg/animal of diquafosol testrasodium intratumorally once per day.
ADU-S100 and Diquafosol tetrasodum were dosed intratumorally (itu) in a total volume of 50 μL of therapeutic agents; combination therapies were administered as single injections containing 2×25 μL of 2× dosing solutions.
Tumors were measured using calipers twice per week.

Another experiment concerns CT26 colon carcinoma. As to conditions: Corrales et al., 2015; cited from earlier work.
The subject of a further experiment is 4T1 mammary carcinoma. As to conditions: Corrales et al., 2015; cited from earlier work.
Another experiment has as its system human STING alleles. As to conditions: HEK293T cells; Corrales et al., 2015; cited from earlier work.
A further experiment has as its system IFN-β. The note with it: PBMCs isolated from multiple donors with different STING genotypes; Corrales et al., 2015; cited from earlier work.
[4] abbreviates: combination of Diquafosol (dose curve starting at 100 μM) and cGAMP, THP1 cells, 24 hours.
[5] abbreviates: combination of PSB 1114 (dose curve starting at 20 μM) and 2′3′-cGAMP, THP1 cells, 24 hours.
Where [6] appears, read: combination of Diquafosol (dose curve starting at 100 μM) and ADU-S100 (2 μM), THP1 cells, 24 hours.

`Nc1nc2c(ncn2[C@@H]2O[C@@H]3COP(=O)(O)O[C@H]4[C@@H](O)[C@H](n5cnc6c(N)ncnc65)O[C@@H]4COP(=O)(O)O[C@@H]2[C@@H]3O)c(=O)[nH]1` [2′3′-cGAMP]: the NFKB signaling result is recorded as “only slightly induced” with NfkB (combination of conditioned media from HeLa cells in DMEM+10% FBS (standard culture) and 2′3′-cGAMP 300 ng/ml); “increased” in the experiment on NfkB (combination of nutrient-starved (PBS, 48 hours) HeLa conditioned media and 2′3′-cGAMP 300 ng/ml). The IFN-beta secretion result in the experiment on IFN-beta [1] and with IFN-beta [2] was “increased” throughout. The IRF signaling result is listed as “induced IRF signaling” in the experiment with IRF (setting [4]); “induced IRF signaling” with IRF (setting [5]); “only slightly induced” with IRF (combination of conditioned media from HeLa cells in DMEM+10% FBS (standard culture) and 2′3′-cGAMP 300 ng/ml, THP1-Dual cells, 24 hours); “increased” in the experiment with IRF (combination of nutrient-starved (PBS, 48 hours) HeLa conditioned media and 2′3′-cGAMP 300 ng/ml, THP1-Dual cells, 24 hours); “induced IRF signaling” with IRF (combinations of cGAMP with purinergic receptor agonist nucleotide triphosphates, human monocytes, data not shown). Moreover, the IRF activation entry in the experiment on IRF (conditioned media (PBS, 48 hours) of A549, A427, J774, AMJ2C11, PANC1, MLE12, RAW264, Calu-1, MCF7 cells in combination with 2′3′-cGAMP 300 ng/ml, THP1-Dual cells, 24 hours) is listed as “induced IRF activation”.

Regarding `Nc1ncnc2c1ncn2[C@@H]1O[C@@H]2COP(=O)([S-])O[C@@H]3[C@H](O)[C@@H](COP([O-])(=S)O[C@H]2[C@H]1O)O[C@H]3n1cnc2c(N)ncnc21.[Na+].[Na+]` (some centres unmarked) [ADU-S100], the “antitumor immune response and tumor regression” value with B16.F10 melanoma was “potent antitumor immune response and significant tumor regression”; in the experiment with CT26 colon carcinoma, “potent antitumor immune response and significant tumor regression”; in the experiment on 4T1 mammary carcinoma, “potent antitumor immune response and significant tumor regression”. Also, the survival result in [3] is given as “much greater effect on increasing survival”. Moreover, the STING activation result in the experiment with human STING alleles is “broadly activate all known human STING alleles”. Moreover, the “expression of IFN-β” value in the experiment with IFN-β is given as “induced dose-dependent expression of IFN-β”. Besides, the IRF signaling result was “strongly increased IRF signaling” with IRF (combination of ADU-S100 (dose curve starting at 20 μM) and nutrient starved (PBS) HeLa conditioned media, THP1 cells, 24 hours); “synergizes” in the experiment on IRF (setting [6]).

As to `Cc1ccc2c(c1)C=Cc1cc(C)ccc1C2c1cn(Cc2ccc(C(=O)Nc3nn[nH]n3)o2)c(=O)[nH]c1=S` [AR-C 118925], in the experiment with IRF (purinergic receptor antagonist 3-fold dose-response starting at 20 μM, THP1-Dual cells, 24 hours), the “synergistic induction of IRF activity by cGAMP in combination with HeLa-PBS conditioned media” value is “inhibited”.

As for `O=c1ccn([C@@H]2O[C@H](COP(=O)(O)OP(=O)(O)OP(=O)(O)OP(=O)(O)OC[C@H]3O[C@@H](n4ccc(=O)[nH]c4=O)[C@H](O)[C@@H]3O)[C@@H](O)[C@H]2O)c(=O)[nH]1` [Diquafosol], the survival result in experiment [3] is “much greater effect on increasing survival”. Moreover, the results for the IRF signaling entry with IRF (setting [6]) and in the experiment with IRF (setting [4]) were “synergizes” and “induced IRF signaling”, respectively.

As to `O=c1[nH]c(=S)ccn1[C@@H]1O[C@H](COP(=O)(O)OP(=O)(O)C(F)(F)P(=O)(O)O)[C@@H](O)[C@H]1O` [PSB 1114], the IRF signaling entry with IRF (setting [5]) was “induced IRF signaling”.
